Results taken from patent US20050239173A1, “Production of amino sugars” (Cargill, Inc., priority 2003, published 2005).

What was measured:
[1] = biological target: T1, E. coli N-acetylglucosamine-6-phosphate deacetylase (Escherichia coli, UniProt P0AF18); assay: Enzymatic deacetylation of N-acetylglucosamine followed over time (Elson and Morgan assay); assay type: biochemical; conditions: 37° C.; for [Glucosamine]: 0.1 mL of 500 mM N-acetylglucosamine in 0.2 mL, Tris-HCl pH 7.8, nagA cell extract
T1 construct: The Xa protease recognition site (IEGR) sits directly in front of the start codon of the gene of interest; His-tag (N); S-tag (N); Factor Xa recognition site (IEGR) (N); made in house; host or cells: E. coli BL21(DE3), pET30(Xa/LIC)
Method: Fermentation broth and cell extract samples were routinely assayed using the method of Elson and Morgan (Biochem. J. 27:1824-1828) described by Zalkin (1985, Method Enzymol. 113:278-281) and Roden et al. (1997, Anal. Biochem. 254:240-248). Typically, to 0.08 mL of fermentation broth or 0.015 to 0.02 mL of cell extract was added 0.01 mL of saturated sodium bicarbonate solution and 0.01 mL of cold, freshly prepared 5% aqueous acetic anhydride. After a 3 minute incubation at room temperature, the mixture was incubated at 100° C. for 3 min to drive off the excess acetic anhydride. After cooling to room temperature, 0.12 mL of potassium borate, pH 9.2, was added and the mixture was incubated at 100° C. for 3 min. After cooling to room temperature, 1.0 mL of Ehrlich's reagent (1 gram p-dimethylaminobenzaldehyde in 100 mL glacial acetic acid containing 0.125 M HCl) was added to each tube. The tubes were incubated at 37° C. for 20 min and the absorbance at 585 nm was measured. All samples were assayed in duplicate. A standard curve was generated using 0.005 to 0.1 μmole glucosamine for quantification of product formation. Samples were assayed with and without the acetic anhydride addition to determine the amounts of glucosamine and N-acetylglucosamine present in the sample. The amount of N-acetylglucosamine was calculated from the results of assays without the acetic anhydride addition. The amount of glucosamine was calculated as the difference between the results with and without the acetic anhydride addition.
The enzymatic deacetylation of N-acetylglucosamine was followed over time. In a total of 0.2 mL was mixed 0.1 mL of 500 mM N-acetylglucosamine, 0.02 mL of 0.5 M Tris-HCl, pH 7.8 and nagA protein (cell extract fraction; 3.5 mg/mL protein). The mixtures were incubated from 0 to 120 min at 37° C. To distinguish between glucosamine and N-acetylglucosamine using the Elson and Morgan method described in the Materials and Methods section, the product formation in the samples was measured with and without the acetylation step. The amount of glucosamine was calculated as the difference between the assay results with and without the acetylation step. After 120 min approximately 74% of the substrate N-acetylglusosamine was converted to glucosamine.

[2] = test system: S. cerevisiae strain BY4742; assay: Growth of S. cerevisiae strains in the presence of glucosamine (OD600); assay type: cell-based, Saccharomyces cerevisiae; conditions: BY4742 GFA1pESCHis
Method: (§1) S. cerevisiae strains BY4742 and BY4743 transformed with pESCHis carrying the GFA1 insert were grown in 5 mL SC-His medium containing 2% glucose overnight at 30° C. with shaking. An aliquot (0.5 mL) from each culture was transferred to 6 flasks containing 50 mL of SC-His medium containing 2% glucose. Glucosamine at the following concentrations was added to the flasks: 0, 2, 6, 10, 15, 20 mg/mL for each strain. The incubation was continued for 28 h at 30° C. with shaking. At 3, 16 and 28 h samples were withdrawn and the optical density at 600 nm was measured.

[3] = test system: S. cerevisiae strain BY4743; assay: as above; assay type: cell-based, Saccharomyces cerevisiae; conditions: BY4743 GFA1pESCHis
Method: as §1

[4] = test system: S. cerevisiae strain BY4742; assay: as above; assay type: cell-based, Saccharomyces cerevisiae; conditions: parental strains of Examples 1-3 (BY4742 and BY4743); concentrations of glucosamine as high as 20 g/L
osteoarthritis = conditions: patients; cited from earlier work
[5] = biological target: glucosamine-6-phosphate synthase (Escherichia coli, UniProt P17169); conditions: White, Biochem. J. 106:847-858 (1968); cited from earlier work
glucosamine-6-phosphate synthase, sequence (P17169 whole entry): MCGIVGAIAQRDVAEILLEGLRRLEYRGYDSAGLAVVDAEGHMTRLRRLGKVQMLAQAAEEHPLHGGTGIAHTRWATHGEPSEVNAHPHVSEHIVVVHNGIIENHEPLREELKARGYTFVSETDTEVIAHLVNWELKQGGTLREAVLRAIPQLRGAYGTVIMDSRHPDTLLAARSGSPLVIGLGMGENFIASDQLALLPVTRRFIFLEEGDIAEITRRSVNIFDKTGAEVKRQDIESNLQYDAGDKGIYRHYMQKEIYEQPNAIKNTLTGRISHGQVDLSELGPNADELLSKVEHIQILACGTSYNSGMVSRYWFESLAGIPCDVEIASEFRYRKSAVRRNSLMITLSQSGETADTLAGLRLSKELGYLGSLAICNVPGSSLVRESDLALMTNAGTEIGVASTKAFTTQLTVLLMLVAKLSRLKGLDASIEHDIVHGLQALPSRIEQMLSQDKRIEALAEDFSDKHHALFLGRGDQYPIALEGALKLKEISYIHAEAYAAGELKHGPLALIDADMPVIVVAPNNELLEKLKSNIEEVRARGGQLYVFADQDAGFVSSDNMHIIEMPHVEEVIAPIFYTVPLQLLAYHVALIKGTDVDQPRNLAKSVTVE

Compound: CC(=O)N[C@@H](C=O)[C@@H](O)[C@H](O)[C@H](O)CO [N-acetylglucosamine, 2-acetamino-2-deoxy-D-glucose]
- [Glucosamine] ([1]; 0 min): 0.0 mM
- [Glucosamine] ([1]; 15 min): 126.3 mM
- [Glucosamine] ([1]; 30 min): 136.3 mM
- [Glucosamine] ([1]; 60 min): 161.3 mM
- [Glucosamine] ([1]; 120 min): 185.0 mM
- substrate converted to glucosamine ([1]; after 120 min, nagA cell extract): approximately 74%

Compound: N[C@H]1C(O)O[C@H](CO)[C@@H](O)[C@@H]1O (stereo partly shown) [glucosamine, 2-amino-2-deoxyglucopyranose]
- OD600 ([2]; glucosamine 2.0 mg/mL, 3 h): 0.71
- OD600 ([2]; glucosamine 2.0 mg/mL, 16 h): 3.06
- OD600 ([2]; glucosamine 2.0 mg/mL, 28 h): 3.32
- OD600 ([2]; glucosamine 6.0 mg/mL, 3 h): 0.66
- OD600 ([2]; glucosamine 6.0 mg/mL, 16 h): 2.98
- OD600 ([2]; glucosamine 6.0 mg/mL, 28 h): 3.27
- OD600 ([2]; glucosamine 10.0 mg/mL, 3 h): 0.64
- OD600 ([2]; glucosamine 10.0 mg/mL, 16 h): 2.87
- OD600 ([2]; glucosamine 10.0 mg/mL, 28 h): 3.06
- OD600 ([2]; glucosamine 15.0 mg/mL, 3 h): 0.60
- OD600 ([2]; glucosamine 15.0 mg/mL, 16 h): 2.92
- OD600 ([2]; glucosamine 15.0 mg/mL, 28 h): 3.22
- OD600 ([2]; glucosamine 20.0 mg/mL, 3 h): 0.57
- OD600 ([2]; glucosamine 20.0 mg/mL, 16 h): 2.84
- OD600 ([2]; glucosamine 20.0 mg/mL, 28 h): 3.02
- OD600 ([3]; glucosamine 2.0 mg/mL, 3 h): 0.74
- OD600 ([3]; glucosamine 2.0 mg/mL, 16 h): 4.12
- OD600 ([3]; glucosamine 2.0 mg/mL, 28 h): 4.69
- OD600 ([3]; glucosamine 6.0 mg/mL, 3 h): 0.76
- OD600 ([3]; glucosamine 6.0 mg/mL, 16 h): 3.99
- OD600 ([3]; glucosamine 6.0 mg/mL, 28 h): 5.02
- OD600 ([3]; glucosamine 10.0 mg/mL, 3 h): 0.66
- OD600 ([3]; glucosamine 10.0 mg/mL, 16 h): 4.18
- OD600 ([3]; glucosamine 10.0 mg/mL, 28 h): 4.36
- OD600 ([3]; glucosamine 15.0 mg/mL, 3 h): 0.68
- OD600 ([3]; glucosamine 15.0 mg/mL, 16 h): 4.00
- OD600 ([3]; glucosamine 15.0 mg/mL, 28 h): 4.14
- OD600 ([3]; glucosamine 20.0 mg/mL, 3 h): 0.38
- OD600 ([3]; glucosamine 20.0 mg/mL, 16 h): 3.78
- OD600 ([3]; glucosamine 20.0 mg/mL, 28 h): 3.98
- effect of glucosamine on the parental strains [4]: not affected
- effect on joint structure (osteoarthritis): improve joint structure
- effect on pain of osteoarthritis (osteoarthritis): reduce the pain of osteoarthritis in some patients

Compound: N[C@H]1C(O)O[C@H](COP(=O)(O)O)[C@@H](O)[C@@H]1O (stereo partly shown) [glucosamine-6-phosphate]
- inhibition of glucosamine-6-phosphate synthase activity [5]: inhibited
